Source: US20240101570A1 (AMGEN INC., priority 2020, published 2024)

What was measured:
[1] = test system: HCT116 MTAP null cells; assay: HCT116 MTAP null cell proliferation / viability (CellTiter-Glo, 6 days); type: cell-based; conditions: HCT116-MTAP null, 144 h, HCT116 MTAP null cells, 6 days, CellTiter-Glo; read-out: HCT-116 MTAP null IC50
Procedure, shortened: (§1)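 Viability read by CellTiter-Glo after 6-day compound exposure of MTAP-null and wild-type HCT116 cells grown in RPMI 1640 with 10% FBS. Dosing used 1:3 steps from 1 or 10 μM (8-9 points) or 1:2 steps from 10 or 50 μM (22 points); IC50 taken where fitted curve crosses 50% of control.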

[2] = test system: HCT116 WT cells; assay: HCT116 WT cell proliferation / viability (CellTiter-Glo, 6 days); type: cell-based; conditions: Homo sapiens, HCT-116, 144 h, HCT116 WT cells, 6 days, CellTiter-Glo; read-out: HCT-116 WT IC50
Procedure, shortened: as §1

| SMILES | IC50 [1] [nM] | IC50 [2] [µM] |
| --- | --- | --- |
| CC(C)N(Cc1ccc(C2CC2)nc1)C(=O)c1cc2c3c(c(N)nc2cn1)[C@@H](C)OC3 [Example 412, (3R)-4-amino-N-((6-cyclopropyl-3-pyridinyl)methyl)-3-methyl-N-(2-propanyl)-1,3-dihydrofuro[3,4-c][1,7]naphthyridine-8-carboxamide] | 397 | 25.6 |
| COC(=O)N1CCN(c2ccc(CN(C)C(=O)c3ccc4nc(N)c5c(c4c3)COC5)nc2)CC1 [Example 413, methyl 4-(6-((((4-amino-1,3-dihydrofuro[3,4-c]quinolin-8-yl)carbonyl)(methyl)amino)methyl)-3-pyridinyl)-1-piperazinecarboxylate] | 870 | 20.3 |
| C[C@@H]1OCc2c1c(N)nc1cnc(C(=O)N(C)Cc3ccc(C4CC4)cn3)cc21 [Example 414, (3S)-4-amino-N-((5-cyclopropyl-2-pyridinyl)methyl)-N,3-dimethyl-1,3-dihydrofuro[3,4-c][1,7]naphthyridine-8-carboxamide] | 5860 | > 50 |
| C[C@H]1OCc2c1c(N)nc1cnc(C(=O)N(C)Cc3ccc(C4CC4)cn3)cc21 [Example 415, (3R)-4-amino-N-((5-cyclopropyl-2-pyridinyl)methyl)-N,3-dimethyl-1,3-dihydrofuro[3,4-c][1,7]naphthyridine-8-carboxamide] | 449 | 25.1 |
| C[C@H]1OCc2c1c(N)nc1cnc(C(=O)N(Cc3ccc(C4CC4)cn3)C3CC3)cc21 [Example 416, (3R)-4-amino-N-cyclopropyl-N-((5-cyclopropyl-2-pyridinyl)methyl)-3-methyl-1,3-dihydrofuro[3,4-c][1,7]naphthyridine-8-carboxamide] | 62 | 8.23 |
| C[C@@H]1OCc2c1c(N)nc1cnc(C(=O)N(Cc3ccc(C4CC4)cn3)C3CC3)cc21 [Example 417, (3S)-4-amino-N-cyclopropyl-N-((5-cyclopropyl-2-pyridinyl)methyl)-3-methyl-1,3-dihydrofuro[3,4-c][1,7]naphthyridine-8-carboxamide] | 5610 | 17.6 |
| Nc1nc2cnc(C(=O)N(Cc3ccc(OC(F)F)nn3)CC3CC3)cc2c2c1COC2 [Example 418, 4-amino-N-(cyclopropylmethyl)-N-((6-(difluoromethoxy)-3-pyridazinyl)methyl)-1,3-dihydrofuro[3,4-c][1,7]naphthyridine-8-carboxamide] | 171 | 6.34 |
| CCN(Cc1ccc(C(F)(F)F)cn1)C(=O)c1cc2c3c(c(N)nc2cc1F)COC3 [Example 419, 4-amino-N-ethyl-7-fluoro-N-((5-(trifluoromethyl)-2-pyridinyl)methyl)-1,3-dihydrofuro[3,4-c]quinoline-8-carboxamide] | 152 | 3.79 |
| CCN(Cc1ccc(C(F)(F)F)cn1)C(=O)c1cc2c3c(c(N)nc2cc1Cl)COC3 [Example 420, 4-amino-7-chloro-N-ethyl-N-((5-(trifluoromethyl)-2-pyridinyl)methyl)-1,3-dihydrofuro[3,4-c]quinoline-8-carboxamide] | 248 | 8.36 |
| CCN(Cc1ccc(Cl)cn1)C(=O)c1ccc2nc(N)c3c(c2c1)CO[C@@H]3C [Example 421, (3R)-4-amino-N-((5-chloro-2-pyridinyl)methyl)-N-ethyl-3-methyl-1,3-dihydrofuro[3,4-c]quinoline-8-carboxamide] | 116 | 10 |
| CCN(Cc1ccc(C(F)(F)F)cn1)C(=O)c1ccc2nc(N)c3c(cnn3C)c2c1 [Example 422, 4-amino-N-ethyl-3-methyl-N-((5-(trifluoromethyl)-2-pyridinyl)methyl)-3H-pyrazolo[3,4-c]quinoline-8-carboxamide] | 6740 | 10.7 |
| CC(C)N(Cc1ccc(Cl)cn1)C(=O)c1ccc2nc(N)c3c(c2c1)CO[C@@H]3C [Example 423, (3R)-4-amino-N-((5-chloro-2-pyridinyl)methyl)-3-methyl-N-(2-propanyl)-1,3-dihydrofuro[3,4-c]quinoline-8-carboxamide] | 64 | 3.98 |
